Assay results from patent US12667546B2, “Methods for manipulating cell state transitions in cancer” (AGENCY FOR SCIENCE, TECHNOLOGY AND RESEARCH, priority 2018, dated 2026).
Entries after “also recorded” stand apart in the source; their conditions may differ.

Assays:
[1] = test system: NAMEC8-Ras; assay: Tumor formation of pre-treated NAMEC8-Ras injected subcutaneously; assay type: in vivo, NSG mice; details: pre-treated cells, 11 weeks
[2] = test system: SUM159; assay: Mammosphere assay, SUM159; assay type: cell-based, human
Protocol: (§1) For mammosphere culture, cells were seeded onto 96-well ultralow-adherence plates at 700 cells/well in Mammocult medium (Stem Cell Technologies) supplemented with 4 μg/ml heparin, 0.5 μg/ml hydrocortisone and 1% methylcellulose. Spheres (>100 μm) were counted at 7-10 days later.

[3] = test system: SUM159; assay: Flow cytometry of CD44 and CD24, SUM159; assay type: cell-based, human
Protocol: (§2) Cells were harvested as per FACS and resuspended in 100 μl of solution containing CD24-PE and CD44-APC (BD-Biosciences) antibodies diluted in 2% FBS in PBS (1:40 dilution). Cells were stained for 45 min with vortexing every 10 min to ensure even staining. After antibody incubation, cells were washed once and resuspended in 300 μl 2% FBS in PBS. Cells were then filtered through a 40 μm strainer and analyzed on BD LSR Fortessa X-20 Cell Analyzer.

[4] = test system: SUM159; assay: Expression of EMT and lineage markers in SUM159; assay type: cell-based, human
Protocol: (§3) Cells were rinsed twice in ice-cold PBS. Total RNA was extracted using Trizol (Invitrogen) and column-purified with RNeasy kits (Qiagen). cDNA synthesis was performed with 500 ng of total RNA at 37° C. for 2 h using the SuperScript III First-Strand Synthesis System (Thermo Fisher Scientific), and subsequently diluted 5-fold. mRNA levels were measured with gene-specific primers listed below using the ABI Prism 7900HT Sequence Detection System 2.2 (Applied Biosystems). Results were normalized to GAPDH and analyzed using SDS 2.2 software.
Cells were harvested and scraped from culture dishes in ice-cold PBS. They were then centrifuged at 12000 rpm for 5 min at 4° C. The pellets were then snap frozen in liquid nitrogen or lysed in ice-cold RIPA lysis buffer (Thermo Scientific) and left on ice for 30 min. Subsequently, the lysates were centrifuged at 12000 rpm for 10 min at 4° C. The supernatants were then aspirated and placed in fresh tubes. Protein concentrations were determined using Coomaisse Blue. 50-80 μg total protein was mixed with NuPAGE™ LDS sample buffer and heated at 70° C. for 10 min. Samples were loaded into NuPAGE™ 4-12% Bis-Tris gels (precast polyacrylamide gel; Invitrogen™). Gel electrophoresis was done at 200V for 1.5 h and then blotted onto nitrocellulose membranes (Trans-Blot Turbo™ transfer pack; Bio-Rad). […]

[5] = test system: NAMEC8; assay: Mammosphere assay, NAMEC8; assay type: cell-based, human; details: NAMEC8, pre-treated cells
Protocol: as §1

[6] = test system: H3K14ac, H3K18ac and H3K27ac in NAMEC8; assay: Immunoblot of histone acetylation marks; assay type: cell-based, human
Protocol: (§4) Cells were harvested and scraped from culture dishes in ice-cold PBS. They were then centrifuged at 12000 rpm for 5 min at 4° C. The pellets were then snap frozen in liquid nitrogen or lysed in ice-cold RIPA lysis buffer (Thermo Scientific) and left on ice for 30 min. Subsequently, the lysates were centrifuged at 12000 rpm for 10 min at 4° C. The supernatants were then aspirated and placed in fresh tubes. Protein concentrations were determined using Coomaisse Blue. 50-80 μg total protein was mixed with NuPAGE™ LDS sample buffer and heated at 70° C. for 10 min. Samples were loaded into NuPAGE™ 4-12% Bis-Tris gels (precast polyacrylamide gel; Invitrogen™). Gel electrophoresis was done at 200V for 1.5 h and then blotted onto nitrocellulose membranes (Trans-Blot Turbo™ transfer pack; Bio-Rad). The membranes were blocked with 5% skimmed milk in Tris-buffered saline (TBS; 1st BASE) with 0.1% Tween-20 (Santa Cruz), and then incubated with primary antibodies overnight at 4° C. Thereafter, the membranes were incubated with a horseradish peroxidase (HRP)-conjugated secondary antibody at room temperature for one hour. Finally, the immunoreactive proteins were visualized by using an enhanced chemiluminescent (ECL) reagent (Thermo Scientific, 34075) with the Chemidoc™ Imager (Bio-Rad, 17001401).

[7] = test system: NAMEC8; assay: Expression of EMT and lineage markers (qRT-PCR, immunoblot, immunofluorescence) in NAMEC8; assay type: cell-based, human
Protocol: as §3, §4
Cell cultures were fixed in 4% paraformaldehyde and permeabilized with 0.25% Triton X-100, followed by blocking with 1% bovine serum albumin in PBST. Cells were incubated in specific primary antibodies, followed by the appropriate secondary antibodies conjugated with Alexa Fluor-488 or -594 (Molecular Probes). Cell nuclei were then stained with DAPI and then viewed and imaged with an Axio Observer D1 epifluorescence microscope with a built-in AxioCamMR3 camera (Zeiss), using the optimal filters and 100-200× magnifications.

[8] = test system: NAMEC8; assay: Flow cytometry of CD44 and CD24, NAMEC8; assay type: cell-based, human
Protocol: as §2

[9] = test system: NAMEC8; assay: Cell morphology of treated NAMEC8; assay type: cell-based, human; details: bexarotene, TTNPB, SGC-CBP30, UNC0642, A-485 1 μM, LLY-283, GSK591 20 nM, C-IN-1 500 nM
Protocol: Human mammary epithelial cell lines (HMLE) were generated as described and immortalized using retroviral vectors to express the catalytic subunit of the human telomerase enzyme, hTERT and the SV-40 Large T antigen. NAMEC8 was generated as described. Briefly, HMLE cells were grown to 50% confluency, followed by differential trypsinization for 1 minute with 0.05% trypsin. Detached cells were carefully collected and re-plated at approximately 200 cells per well of a 24-well plate. Upon expansion, wells were screened for populations that were morphologically mesenchymal and can be stably propagated. Clonal and non-clonal NAMEC cell lines were generated. NAMEC8 is a non-clonal line derived from at least 200 mesenchymal cells. HMLE cells and NAMECs were maintained in MEGM (Lonza).

[10] = test system: A549; assay: TGFβ-induced EMT in lung cancer cell line; assay type: cell-based, human
Protocol: as §4

[11] = test system: SUM159; assay: Fatty acid β-oxidation assay (rate of FAO); assay type: cell-based, human; details: etomoxir alone or together with bexarotene
Protocol: FAO rate was measured using the mitochondrial stress test on the XF96 analyzer (Seahorse Bioscience) according to manufacturer's instructions. Cells were seeded in 96well XF96 cell culture plates at a density of 9000 cells/well in complete media. Cells were then incubated with XF modified DMEM assay medium (Seahorse Bioscience) supplemented with 1 mM glutamine, 0.5 mM glucose, 1% FBS and 0.5 mM carnitine the next day for 18 h. On the day of the assay, cells were incubated with FAO assay medium (KHB: 111 mM NaCl, 4.7 mM KCl, 1.25 mM CaCl2), 2 mM MgSO4, 1.2 mM NaH2 PO4 supplemented with 2.5 mM glucose, 0.5 mM carnitine, 5 mM HEPES, adjusted to pH7.4) 45 min prior to the assay in a non-CO2 incubator. Seahorse XF Cell Mito Stress Test compounds (2 μM oligomycin, 2 μM FCCP, 2 μM rotenone). For inhibition of FAO, etomoxir (40 μM) was added 15 min prior to the assay. Just prior to starting the assay, XF Palmitate-BSA FAO substrate or BSA was added to the cells. Plate was then put into the XF96 analyzer and the XF Cell Mito Stress Test was run using the recommended protocol. Rate of FAO was calculated by the difference in maximal respiration when Palmitate-BSA FAO substrate was supplemented relative to BSA control.

[12] = test system: MCF7-Slug+Sox9 tumors; assay: Orthotopic MCF7-Slug+Sox9 EMT-induced metastasis model; assay type: in vivo, NSG mice; details: etomoxir 20 mg/kg per day i.p. plus doxycycline
Protocol: Orthotopic tumor transplantations of MCF7-Slug+Sox9 cells labeled with the tdTomato fluorescent protein were carried out as described previously. Briefly, 1×10^6 cells were resuspended in 30 μl of media containing 50% matrigel and injected into mammary fat pads of NSG mice. Mice were randomly divided into 3 groups (Control, DOX and Etomoxir+DOX). Mice were administered vehicle control (0.9% w/v NaCl) or etomoxir (20 mg/kg) via i.p. injections daily for 3 weeks. Doxycycline was then administered through drinking water for 2 weeks. Mice were sacrificed 10 weeks after doxycycline treatment was stopped and analyzed for lung metastases under a fluorescence microscope. The tumor sections were fixed overnight in 4% paraformaldehyde, immersed in 70% ethanol, and sent to the Advanced Molecular Pathlogy Lab, IMCB for paraffinization. For IF staining, slides were deparaffinized and rehydrated in PBS. The tissues were surrounded with a hydrophobic barrier using a barrier pen and blocked with the blocking buffer (1% bovine serum albumin; BSA, 1% horse serum and 0.2% Triton X-100 in PBS) for 1 hour. They were then washed with PBS and incubated in specific primary antibodies at 4° C. overnight. […] The fluorescence image analysis and the fluorescence overlay image were obtained with the Axio Vision Rel. […]

[13] = test system: MCF7-Slug+Sox9; assay: Doxycycline-induced EMT in MCF7-Slug+Sox9 cells; assay type: cell-based, human
Protocol: (§5) HMLE-Twist-ER cells were generated as described. For EMT-induction, 100 nM of 4-hydroxytamoxifen in ethanol was added to the culture medium every 48 h to induce Twist expression. Control cells were treated with ethanol. MCF7-Slug+Sox9 cells were generated as previously described. HMLE-Zeb1 cells were generated by infection with FUW-Zeb1 and rTTA. Doxycycline was added to the culture medium every 48 h to induce Zeb1 expression. To generate tumorigenic cells from NAMEC8, cells were infected with pWZL-Blast-Ras. MCF7, MCF7-Ras, SUM159 were maintained as previously described. All cell cultures were maintained at 37° C. with 5% CO2.
as §3
(§6) Cells were harvested and scraped from culture dishes in ice-cold PBS. They were then centrifuged at 12000 rpm for 5 min at 4° C. […] Protein concentrations were determined using Coomaisse Blue. […]

[14] = test system: HMLE-Twist ER; assay: 4-OHT-induced EMT in HMLE-Twist ER cells; assay type: cell-based, human
Protocol: as §5, §3, §6

[15] = in vivo; cited from earlier work

| SMILES | tumor formation / tumor size [1] | mammosphere formation [2] | CD44/CD24 surface expression [3] | expression of EMT and lineage markers / epithelial features [4] | mammosphere formation [5] | histone acetylation marks [6] | expression of EMT and basal/luminal markers ([7]; transcript and protein) | CD44/CD24 surface expression [8] | cell morphology [9] | TGFβ-induced EMT [10] | FAO activity [11] | MET phenotype: induction and durability after drug withdrawal ([7]; drugs removed for at least seven days) | EMT markers in primary tumors (E-cadherin, Vimentin) [12] | Slug+Sox9-induced EMT [13] | 4-OHT-induced EMT [14] | clinical outcome / toxicity [15] |
| --- | --- | --- | --- | --- | --- | --- | --- | --- | --- | --- | --- | --- | --- | --- | --- | --- |
| COc1ccc(CCc2nc3cc(-c4c(C)noc4C)ccc3n2C[C@H](C)N2CCOCC2)cc1Cl [SGC-CBP30] | significantly smaller tumors after 11 weeks; also recorded: significantly reduced tumor formation in mice | significant reduction in spheres formation and spheres size | slight decrease in CD44 expression, with a population of cells gaining the expression of CD24; also recorded: decreased CD44 expression and higher CD24 expression | increasing epithelial features and decreasing stemness in SUM159 | significantly reduce the size and number of spheres formed | all the acetylation marks were decreased but to a lesser extent compared to A-485 treatment | significantly increased epithelial marker E-cadherin expression, as well as downregulated several mesenchymal markers, fibronectin, ZEB1 and SLUG; also recorded: most drastic change as compared to the other compounds | population of cells with lower CD44 expression was observed; also recorded: Population of cells with decreased CD44 expression was observed | obvious change in cell morphology from scattered, spindle- and fibroblastic-like cells, to tight clusters of epithelial islands; also recorded: resulted in epithelial-like morphology | – | – | – | – | – | – | – |
| CCOC(=O)[C@@]1(CCCCCCOc2ccc(Cl)cc2)CO1 [etomoxir] | – | – | – | – | – | – | – | – | – | blocking TGFβ-induced EMT | completely inhibited FAO activity | unable to do so | retention of the epithelial features | blocked Slug+Sox9-induced EMT | dramatically block this transition | failed clinical trials due to liver toxicity |
